# Measurements published in patent US8637684B2, “Tautomycetin and tautomycetin analog biosynthesis” (Wisconsin Alumni Research Foundation, priority 2010, dated 2014).
# How the values were obtained:
# [1] = molecular target: T1, SHP2 (Homo sapiens, UniProt Q06124); assay: PTP activity assay with pNPP as substrate: SHP2; type: biochemical
# T1 construct: The expression and purification of the SHP2 catalytic domain (residues 262-528) were described previously; made in house
# T1 sequence (Q06124 262-528): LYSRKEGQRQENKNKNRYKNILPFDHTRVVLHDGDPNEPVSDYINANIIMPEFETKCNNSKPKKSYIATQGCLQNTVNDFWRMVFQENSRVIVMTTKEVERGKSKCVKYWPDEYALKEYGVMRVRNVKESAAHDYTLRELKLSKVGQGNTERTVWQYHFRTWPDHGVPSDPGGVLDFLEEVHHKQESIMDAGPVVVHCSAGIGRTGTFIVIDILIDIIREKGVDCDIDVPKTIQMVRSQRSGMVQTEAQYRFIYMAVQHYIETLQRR
# Procedure: The effect of the compounds on PTP-catalyzed hydrolysis of p-nitrophenyl phosphate (pNPP) was assessed at pH 7 and 25° C. Members of the PTP superfamily that were included in the screen included the cytosolic PTPs, PTP1B, SHP1, SHP2, Lyp, HePTP, Meg2, and FAP1, the receptor-like PTPs, CD45, LAR, and PTPα, the dual specificity phosphatases VHR, VHX, and Cdc14, and the low molecular weight PTP.
# Therefore, all of the IC50 values reported in this study directly reflect the true affinity of the compound for the enzymes tested.
# [2] = test system: panel of PTPs (PTP1B, SHP1, SHP2, Lyp, HePTP, Meg2, FAP1, CD45, LAR, PTPα, VHR, VHX, Cdc14, low molecular weight PTP); assay: Screen against a panel of PTPs at 10 μM compound (pNPP hydrolysis); type: biochemical; settings: pH 7, 25° C.
# Procedure: The PTP activity was assayed using pNPP as a substrate at 25° C. in 50 mM 3,3-dimethylglutarate buffer, pH 7.0, containing 1 mM EDTA with an ionic strength of 0.15 M adjusted by NaCl. TTM, TTN and the engineered analogs were analyzed for inhibition of a panel of PTPs at 10 μM compound concentration. For each enzyme screened, test compounds were diluted to 20 μM in 100 μL and combined with 50 μL pNPP at a concentration of 4×Km. The reaction was initiated by the addition of 50 μL of 4× concentrated enzyme and pNPP was allowed to convert to the product p-nitrophenol. The reaction was quenched by the addition of 50 μL of 5N NaOH. Nonenzymatic hydrolysis of pNPP was corrected by measuring the control without the addition of enzyme. Production of p-nitrophenol was monitored by a Spectra MAX385 microplate spectrophotometer (Molecular Devices) at 405 nm using a molar extinction coefficient of 18,000 M^−1 cm^−1. IC50 values were calculated by fitting the absorbance at 405 nm versus inhibitor concentration to the following equation: AI/A0=IC50/(IC50+[I]) where AI is the absorbance at 405 nm of the sample in the presence of inhibitor; Ao is the absorbance at 405 nm in the absence of inhibitor; and [I] is the concentration of the inhibitor. […]
# [3] = test system: TCR-mediated tyrosine phosphorylation in Jurkat T cells; assay: Anti-CD3 (TCR) induced tyrosine phosphorylation in Jurkat T cells, immunoblot; type: cell-based; settings: 2-4 μM, 2 hours pretreatment, anti-CD3 stimulation
# Procedure: (§1) Jurkat T cells were grown at 37° C. under an atmosphere of 5% CO2 in RPMI medium 1640 supplemented with 10% FBS. Cells were pretreated with different concentrations of TTN, TTN D-1, or TTM for 2 hours and stimulated with […] anti-CD3 antibody (OKT3; eBioscience) for 5 min and 30 min, respectively. Subsequently, cells were spinned down at 2000 rpm in 4° C., and cell pellets were lysed in 50 mM Tris-HCl (pH 7.5), 150 mM NaCl, 10% glycerol, 1% NP-40, 50 mM NaF, 10 mM pyrophosphate, 5 mM idoacetate, 1 mM sodium orthovanadate, and the protease inhibitor mixture. After 30 min lysing on ice, the cell lysates were centrifuged at 13,200 rpm for 15 min. Total cellular proteins were separated by SDS/PAGE and transferred electrophoretically to nitrocellulose membrane, which was immunoblotted by appropriate antibodies followed by incubation with HRP-conjugated secondary antibodies. Blots were developed using Pierce Pico ECL reagent (Thermo) according to the manufacturer's instructions.
# (§2) TTN induces immunosuppression by suppression of TCR-mediated tyrosine phosphorylation and ERK1/2 activity in T cells (Shim et al., 2002). However, the mechanism of action for TTN's ability to block TCR signaling remains undefined. […]
# [4] = test system: TCR-mediated ERK1/2 activation in Jurkat T cells; assay: Anti-CD3 (TCR) induced ERK1/2 activation in Jurkat T cells, immunoblot; type: cell-based; settings: 2 hours pretreatment, anti-CD3 stimulation
# Procedure: as §1, §2
# [5] = test system: PP1; settings: literature values; cited from earlier work
# [6] = test system: PP2A; settings: literature values; cited from earlier work
compound,measurement,setting,value
"CO[C@H]([C@H](O)CC(=O)[C@@H](C)[C@@H](O)CC[C@@H](C)[C@@H]1O[C@]2(CC[C@@H](C)[C@H](CC[C@H](C)C(C)=O)O2)CC[C@@H]1C)[C@H](OC(=O)C[C@@H](O)C1=C(C)C(=O)OC1=O)C(C)C [TTM, tautomycin, reference compound]",SHP2 inhibitory activity (in words),[1],does not inhibit SHP2 activity
same,inhibitory activity against the panel of PTPs,[2],neither TTM nor its analogs exhibited any inhibitory activity
same,effect on TCR-mediated tyrosine phosphorylation,[3],had no effect
same,effect on TCR-mediated ERK1/2 activation,[4],no appreciable change
same,IC50,[5],22 to 32 nM
same,IC50,[6],22 to 32 nM
